# From PubChem BioAssay (NCI)
#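 These data come from cells grown in 96-well plates and exposed to compound for 48 hours at five concentrations. GI50 marks 50% less growth. TGI is the concentration that stops growth completely.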
# What was measured:
# Assay in all cases: DTP human tumour cell line panel, 48 h
# COLO 205 colon = test system: COLO 205 colon
# HCC-2998 colon = test system: HCC-2998 colon
# HCT-116 colon = test system: HCT-116 colon
# OVCAR-3 ovarian = test system: OVCAR-3 ovarian
# SK-MEL-5 melanoma = test system: SK-MEL-5 melanoma
# SK-OV-3 ovarian = test system: SK-OV-3 ovarian
# SNB-19 CNS = test system: SNB-19 CNS
# SR leukemia = test system: SR leukemia
# UACC-257 melanoma = test system: UACC-257 melanoma
# HOP-62 NSCLC = test system: HOP-62 NSCLC
SMILES,TGI (COLO 205 colon),TGI (HCC-2998 colon),TGI (HCT-116 colon),TGI (OVCAR-3 ovarian),TGI (SK-MEL-5 melanoma),TGI (SK-OV-3 ovarian),TGI (SNB-19 CNS),TGI (SR leukemia),TGI (UACC-257 melanoma),TGI (HOP-62 NSCLC),GI50 (HCC-2998 colon),GI50 (COLO 205 colon),GI50 (OVCAR-3 ovarian),GI50 (SK-MEL-5 melanoma),GI50 (SK-OV-3 ovarian),GI50 (SR leukemia)
Cc1ccc(S(=O)(=O)c2c(O)c3ccc(O)c(C)c3oc2=O)cc1,> 100 µM,> 100 µM,> 100 µM,> 100 µM,> 100 µM,> 100 µM,> 100 µM,> 100 µM,> 100 µM,–,–,–,–,–,–,–
C=C1CC(COc2ccc3c(C)c(C)c(=O)oc3c2C)(c2ccccc2)OC1=O (configuration not stated),3.24 µM,7.12 µM,2.77 µM,9.66 µM,3.23 µM,13.4 µM,27.1 µM,> 100 µM,2.14 µM,20.8 µM,–,–,–,–,–,–
CC1=C(C(=O)NC2CCCCC2)CC(C(=O)NC2CCCCC2)=C(C)N1,> 100 µM,> 100 µM,> 100 µM,> 100 µM,> 100 µM,> 100 µM,> 100 µM,> 100 µM,> 100 µM,> 100 µM,–,–,–,–,–,–
C#CCOCC12C=CC(O1)C1COC(=O)C12 (configuration not stated),> 100 µM,> 100 µM,> 100 µM,> 100 µM,> 100 µM,> 100 µM,> 100 µM,> 100 µM,> 100 µM,> 100 µM,–,–,–,–,–,–
CC(O)CNC1=CC(=O)C(=O)c2ccccc21 (configuration not stated),22 µM,26.5 µM,33.9 µM,13.4 µM,15 µM,> 100 µM,32 µM,> 100 µM,30.3 µM,32.4 µM,–,–,–,–,–,–
COC(=O)C1=C(C)NC(C)=C(C(=O)OC)C1c1cccc(N=O)c1,32.6 µM,45.9 µM,23.9 µM,29 µM,29.8 µM,44.3 µM,> 100 µM,> 100 µM,30.2 µM,56.2 µM,–,–,–,–,–,–
CNC(=S)NNc1ncnc2c1c(-c1ccc(Cl)cc1)cn2-c1ccc(C)cc1,29.6 µM,–,17.1 µM,24 µM,20.8 µM,28.9 µM,36.6 µM,> 100 µM,27 µM,39.2 µM,–,–,–,–,–,–
O=CN1CCN(C(=O)c2ccco2)C1=S,24.4 µM,27.2 µM,24.5 µM,15.4 µM,29.1 µM,70.8 µM,> 70.6 µM,9.25 µM,33 µM,36.2 µM,13.4 µM,–,–,–,–,–
NC(N)=NS(=O)(=O)c1ccc(NC(=O)c2cccc3c(NNc4ccc(S(N)(=O)=O)cc4)c4ccccc4nc23)cc1,> 100 µM,> 100 µM,> 100 µM,> 100 µM,> 100 µM,> 100 µM,> 100 µM,82.6 µM,> 100 µM,> 100 µM,–,–,–,–,–,–
CCN1CCN(Cc2ccc(NC(=O)Nc3ccc(-n4ccc5c(NC(=O)c6ccccc6)nccc54)cc3)cc2C(F)(F)F)CC1,2.51 µM,2.54 µM,–,2.63 µM,2.02 µM,10.5 µM,–,> 100 µM,–,–,1.23 µM,942 nM,1320 nM,764 nM,1800 nM,159 nM
COc1ccc2c(c1)-c1c(c3cc(OC)ccc3n1CCN(C)C)CC2,25.5 µM,20.2 µM,24.4 µM,28.1 µM,24.9 µM,37.1 µM,–,25.1 µM,29.4 µM,29.9 µM,–,–,–,–,–,–
CC[N+]1(C)CCC(O)(c2ccc(C)cc2)C(C(=O)c2ccc(C)cc2)C1 (configuration not stated),55.7 µM,> 100 µM,> 100 µM,39.6 µM,> 100 µM,> 100 µM,> 100 µM,39.6 µM,> 100 µM,> 100 µM,–,–,–,–,–,–
Cc1nnc2n1-c1ccccc1N(Cc1ccccc1)CC2,> 100 µM,> 100 µM,> 100 µM,> 100 µM,> 100 µM,> 100 µM,> 100 µM,> 100 µM,> 100 µM,> 100 µM,–,–,–,–,–,–
CCCO/N=[N+](\[O-])N(CC)CC,–,> 100 µM,> 100 µM,> 100 µM,> 100 µM,> 100 µM,> 100 µM,> 100 µM,> 100 µM,> 100 µM,–,–,–,–,–,–
Cn1c2c(c3ccccc31)CCN1C(=O)C34CCCC3CC21S4 (configuration not stated),> 100 µM,–,> 100 µM,> 100 µM,> 100 µM,> 100 µM,> 100 µM,> 100 µM,> 100 µM,> 100 µM,–,–,–,–,–,–
Clc1ccc(OCc2nnc(COc3ccc(OCc4nnc(COc5ccc(Cl)cc5Cl)o4)c(Cl)c3)o2)c(Cl)c1,74.9 µM,97.3 µM,> 100 µM,61.7 µM,> 100 µM,–,> 100 µM,36.6 µM,> 100 µM,> 100 µM,–,–,–,–,–,–
